Patent US20120190752A1, “EXO-S-MECAMYLAMINE METHOD, USE, AND COMPOUND FOR TREATMENT” (Targacept Inc., priority 2009, published 2012)

Tested on: subjects with major depressive disorder (MDD) who were inadequate responders to citalopram
Assay: SGI-Cog (Subject Global Impression-Cognition) with Attention, Memory, Speed subscales, Phase 2b add-on trial
Type: in vivo, human
Parameters: SGI-Cognition Adj. Mean / SGI-Attention Adj. Mean / SGI-Memory Adj. Mean / SGI-Speed Adj. Mean / SGI-Cog TOTAL Adjusted Mean / SGI-Cog MEMORY Adjusted Mean / SGI-Cog ATTENTION Adjusted Mean / SGI-Cog SPEED OF THINKING Adjusted Mean: scale not given here
Conditions: for SGI-Cog ATTENTION Adjusted Mean / SGI-Cog ATTENTION Mean Difference between TC-5214 and Placebo / SGI-Cog MEMORY Adjusted Mean / SGI-Cog MEMORY Mean Difference between TC-5214 and Placebo / SGI-Cog SPEED OF THINKING Adjusted Mean / SGI-Cog SPEED OF THINKING Mean Difference between TC-5214 and Placebo / SGI-Cog TOTAL Adjusted Mean / SGI-Cog TOTAL Mean Difference between TC-5214 and Placebo: Double Blind Week 16; for SGI-Attention Adj. Mean / SGI-Memory Adj. Mean / SGI-Speed Adj. Mean / SGI-Cognition Adj. Mean / SGI-Attention Difference vs placebo / SGI-Cognition Difference vs placebo / SGI-Memory Difference vs placebo / SGI-Speed Difference vs placebo: ITT; for SGI-Attention Adj. Mean / SGI-Memory Adj. Mean / SGI-Speed Adj. Mean / SGI-Cognition Adj. Mean: assessed at endpoint (Week 16), patient rated change from baseline; for SGI-Cognition Adj. Mean: sum of 3 items; for SGI-Attention Difference vs placebo / SGI-Cognition Difference vs placebo / SGI-Memory Difference vs placebo / SGI-Speed Difference vs placebo: endpoint (Week 16)
Experimental: In more detail, a multi-center double-blind, randomized, placebo-controlled, parallel group, flexible dose titration study of TC-5214 as adjunctive therapy in subjects with major depressive disorder (MDD) who were inadequate responders to citalopram was conducted in centers in the US and India. The study consisted of a screening period, baseline/washout period, open-label phase, double-blind phase, and a follow-up visit. Subject participation in the study could continue for up to 16 weeks of treatment. Following a washout period of up to 28 days for other antidepressants, subjects with MDD and a MADRS total score >/=28 and a Clinical Global Impression-Severity (CGI-S) score >/=4 were enrolled on Day 1 into an open-label citalopram-only phase of the study. This phase lasted 8 weeks, with citalopram (CIT) dose increased from a once-daily dose of 20 mg (Day 1 through Week 4) to 40 mg (Week 4 through Week 8). A total of 579 subjects entered the open-label citalopram phase. At Week 8, subjects who tolerated 40 mg CIT, but whose MADRS score was reduced <50% from baseline and no lower than 17, and CGI-S≧4, were considered inadequate responders. These subjects (n=270) were randomized in a double-blind fashion to receive either placebo or TC-5214-23 as add-on therapy to continued CIT. The double-blind phase of the study also lasted 8 weeks (Week 8 to Week 16). Study drug, TC-5214-23 or placebo, was started at 2 mg daily (1 mg twice per day [BID] dosing), added on to continuing CIT (40 mg PO qd). After 2 weeks of treatment, the dose of TC-5214 could be increased to 4 mg (2 mg BID) or continued unchanged, with up-titration based upon good tolerability and inadequate therapeutic response. After a further 2 weeks, the dose of TC-5214 could be increased again to 8 mg (4 mg BID) if judged appropriate by the investigator, based upon good tolerability and inadequate therapeutic response. At any time during the double-blind phase of the study, placebo or TC-5214-23 could be reduced to the previous dose level following the emergence of unacceptable adverse events (AEs). […] At this follow-up, any signs or symptoms of relapse were evaluated. If a subject was prematurely discontinued from the study between Week 8 and Week 16 for any reason, the investigator was to make every effort to perform all evaluations as per protocol, assuming the subject had reached the end of the double-blind add-on treatment phase. These evaluations were to be made as soon as possible and within 2 weeks of discontinuation. […] There was no meaningful difference in results as a function of age, gender, site, or smoking status. [table] With regard to efficacy endpoints, the following tables present efficacy used in the ITT (Intent-to-Treat) and PP (Per Protocol) populations unless otherwise specific. The primary inference was based upon Week 16 visit using the ITT population. Change from baseline was obtained by subtracting the baseline values from the individual on-treatment values. Change from Week 16 was obtained by subtracting the Week 16 values from the individual follow-up visit (Week 18/19) values. If either the baseline or Week 16 or on-treatment or follow-up value was missing, the change from baseline or Week 16 value was also set to missing. To account for missing data, the last observation carry forward (LOCF) method was used for the ITT and PP populations. Thus, the last available on-therapy observation for a subject, including the observation at premature discontinuation, was used to estimate subsequent missing data points. For efficacy, baseline data were collected at Week 8 in the double-blind augmentation phase electronic case report form pages. With regard to SGI-Cog, the endpoint was the Week 16 results for the SGI-Cog. The Week 16 SGI-Cog composite score and each scale were analyzed at Week 16 using ANOVA. […]

## CNC1(C)C2CCC(C2)C1(C)C (stereo in doubt) [TC-5214, (S)—N,2,3,3-tetramethylnorbornan-2-amine]
ITT Population
  SGI-Cog ATTENTION Adjusted Mean: 2.13
  SGI-Cog ATTENTION Mean Difference between TC-5214 and Placebo: 0.72
  SGI-Cog MEMORY Adjusted Mean: 2.23
  SGI-Cog MEMORY Mean Difference between TC-5214 and Placebo: 0.67
  SGI-Cog SPEED OF THINKING Adjusted Mean: 2.16
  SGI-Cog SPEED OF THINKING Mean Difference between TC-5214 and Placebo: 0.76
  SGI-Cog TOTAL Adjusted Mean: 6.52
  SGI-Cog TOTAL Mean Difference between TC-5214 and Placebo: 2.15
  SGI-Attention Adj. Mean: 2.13 (0.09)
  SGI-Memory Adj. Mean: 2.23 (0.09)
  SGI-Speed Adj. Mean: 2.16 (0.09)
  SGI-Cognition Adj. Mean: 6.52 (0.27)
  SGI-Attention Difference vs placebo: −0.72 (−0.96, −0.47)
  SGI-Cognition Difference vs placebo: −2.15 (−2.89, −1.41)
  SGI-Memory Difference vs placebo: −0.67 (−0.93, −0.42)
  SGI-Speed Difference vs placebo: −0.76 (−1.02, −0.50)
Listed as TC-5214 + CIT
  SGI-Attention Adj. Mean: 2.13
  SGI-Memory Adj. Mean: 2.23
  SGI-Speed Adj. Mean: 2.16
  SGI-Cognition Adj. Mean: 6.52
  SGI-Attention Difference vs placebo: −0.72
  SGI-Cognition Difference vs placebo: −2.15
  SGI-Memory Difference vs placebo: −0.67
  SGI-Speed Difference vs placebo: −0.76
PP Population
  SGI-Cog ATTENTION Adjusted Mean: 2.03
  SGI-Cog ATTENTION Mean Difference between TC-5214 and Placebo: 0.76
  SGI-Cog MEMORY Adjusted Mean: 2.15
  SGI-Cog MEMORY Mean Difference between TC-5214 and Placebo: 0.68
  SGI-Cog SPEED OF THINKING Adjusted Mean: 2.05
  SGI-Cog SPEED OF THINKING Mean Difference between TC-5214 and Placebo: 0.81
  SGI-Cog TOTAL Adjusted Mean: 6.23
  SGI-Cog TOTAL Mean Difference between TC-5214 and Placebo: 2.25
Week 16, ITT and PP populations, result in words
  Total SGI-Cog scores compared with placebo: statistically significant lower
